Laboratory results published in article PMC10945337 (Theranostics, 2024).
Read-outs that look alike come from different tables or passages of the source.

Tests used:
metastases = details: cited from earlier work
[1] = test system: tumor lesions (bone metastases or lymph node metastases); assay: Whole-body planar and SPECT/CT imaging-based dosimetry of tumor lesions; assay type: in vivo, human; details: n = 17 tumor lesions
[2] = cited from earlier work
[3] = Whole-body planar and SPECT/CT imaging-based dosimetry of normal organs (kidneys, liver, parotid and submandibular glands); assay type: in vivo, human
[4] = all metastases, ref Okamoto et al. [53]
[5] = bone metastases, ref Violet et al. [52]
[6] = lymph node metastases, ref Violet et al. [52]
[7] = kidneys, mean ± SD, 6 mCRPC patients
[8] = liver, mean ± SD, 6 mCRPC patients
[9] = parotid gland, mean ± SD, 6 mCRPC patients
[10] = submandibular gland, mean ± SD, 6 mCRPC patients

In the case of `O=C([O-])CC[C@H](NC(=O)N[C@@H](CCCCNC(=O)CCCCCCC(=O)NCCCC[C@@H](NC(=O)[C@@H](Cc1ccccc1)NC(=O)[C@@H](Cc1ccc(O)c(I)c1)NC(=O)CC[C@H](C(=O)[O-])N1CCN(CC(=O)[O-])CCN(CC(=O)[O-])CCN(CC(=O)[O-])CC1)C(=O)[O-])C(=O)[O-])C(=O)[O-].[177Lu+3].[H+].[H+].[H+].[H+].[H+]` [[^177Lu]Lu-PSMA I&T], the “Absorbed dose, range” value (metastases; [4]) is listed as 0.22 - 12.03 Gy/GBq and the Mean absorbed dose (metastases; [4]) is listed as 3.2 ± 2.6 Gy/GBq.
With [^177Lu]Lu-PSMA-617 the “Absorbed dose of the tumor lesions, range” value ([1]; 6 mCRPC patients) was 0.42 - 12.91 Gy/GBq, the “Mean absorbed dose of the tumor lesions” value ([1]; 6 mCRPC patients, mean ± SD) was 2.59 ± 3.30 Gy/GBq and the “Effective half-life in tumor lesions (mean)” value ([1]; mean ± SD) was 35.3 ± 6.3 h. For the same compound, the “Patients with grade 1 / 2 xerostomia” value ([2]; REALITY study, ref [16]) was 20.9%, the “Patients with grade 1 / 2 xerostomia” value ([2]; VISION study, ref [10]) was 38.8% and the “Absorbed dose, range” value (metastases; [5]) was 0.41-10.71 Gy/GBq. For the same compound, the Mean absorbed dose (metastases; [5]) was 5.28 Gy/GBq, the “Absorbed dose, range” value (metastases; [6]) was 0.52-16.23 Gy/GBq and the Mean absorbed dose (metastases; [6]) was 3.91 Gy/GBq. The “A (% injected A0), monoexponential curve-fitting parameter” value (from here on “A (% injected A0)”) [3, 7] was 4.80 ± 1.94 % injected A0, the Absorbed dose [3, 7] was 0.545 ± 0.231 mGy/MBq and the Mean absorbed dose [3, 7] was 0.545 ± 0.231 Gy/GBq. For the same compound, the “TIAC (time-integrated activity coefficient)” value (from here on “TIAC”) [3, 7] was 1.59 ± 0.68 h, the “λ, monoexponential curve-fitting parameter” value [3, 7] was 0.028 ± 0.011 h⁻¹ and the “A (% injected A0)” value [3, 8] was 2.28 ± 0.88 % injected A0. For the same compound, the Absorbed dose [3, 8] was 0.103 ± 0.057 mGy/MBq, the “TIAC” value [3, 8] was 1.65 ± 1.36 h and the “λ, monoexponential curve-fitting parameter” value [3, 8] was 0.030 ± 0.009 h⁻¹. For the same compound, the “A (% injected A0)” value [3, 9] was 0.53 ± 0.20 % injected A0, the Absorbed dose [3, 9] was 0.333 ± 0.194 mGy/MBq and the “TIAC” value [3, 9] was 0.13 ± 0.09 h. The “λ, monoexponential curve-fitting parameter” value [3, 9] was 0.031 ± 0.005 h⁻¹, the Individual absorbed dose ([3]; patient 1 (pre-treatment N, C, L, R), kidneys) was 0.666 mGy/MBq and the Individual absorbed dose ([3]; patient 1 (pre-treatment N, C, L, R), liver) was 0.199 mGy/MBq. It also gave an Individual absorbed dose ([3]; patient 1 (pre-treatment N, C, L, R), parotid gland) of 0.398 mGy/MBq, an Individual absorbed dose ([3]; patient 1 (pre-treatment N, C, L, R), submandibular gland) of 0.309 mGy/MBq and an Individual absorbed dose ([3]; patient 2 (pre-treatment N, C, L, A, R), kidneys) of 0.492 mGy/MBq. It also gave an Individual absorbed dose ([3]; patient 2 (pre-treatment N, C, L, A, R), liver) of 0.138 mGy/MBq, an Individual absorbed dose ([3]; patient 2 (pre-treatment N, C, L, A, R), parotid gland) of 0.150 mGy/MBq and an Individual absorbed dose ([3]; patient 2 (pre-treatment N, C, L, A, R), submandibular gland) of 0.190 mGy/MBq. The Individual absorbed dose ([3]; patient 3 (pre-treatment N, C, L, A, R), kidneys) was 0.906 mGy/MBq, the Individual absorbed dose ([3]; patient 3 (pre-treatment N, C, L, A, R), liver) was 0.069 mGy/MBq and the Individual absorbed dose ([3]; patient 3 (pre-treatment N, C, L, A, R), parotid gland) was 0.146 mGy/MBq. The Individual absorbed dose ([3]; patient 3 (pre-treatment N, C, L, A, R), submandibular gland) was 0.112 mGy/MBq, the Individual absorbed dose ([3]; patient 4 (pre-treatment N, C, L, A, R), kidneys) was 0.674 mGy/MBq and the Individual absorbed dose ([3]; patient 4 (pre-treatment N, C, L, A, R), liver) was 0.125 mGy/MBq. It also gave an Individual absorbed dose ([3]; patient 4 (pre-treatment N, C, L, A, R), parotid gland) of 0.703 mGy/MBq, an Individual absorbed dose ([3]; patient 4 (pre-treatment N, C, L, A, R), submandibular gland) of 0.664 mGy/MBq and an Individual absorbed dose ([3]; patient 5 (pre-treatment N, C, L), kidneys) of 0.252 mGy/MBq. The Individual absorbed dose ([3]; patient 5 (pre-treatment N, C, L), liver) was 0.037 mGy/MBq, the Individual absorbed dose ([3]; patient 5 (pre-treatment N, C, L), parotid gland) was 0.217 mGy/MBq and the Individual absorbed dose ([3]; patient 5 (pre-treatment N, C, L), submandibular gland) was 0.178 mGy/MBq. For the same compound, the Individual absorbed dose ([3]; patient 6 (pre-treatment N, C, L, A), kidneys) was 0.278 mGy/MBq, the Individual absorbed dose ([3]; patient 6 (pre-treatment N, C, L, A), liver) was 0.049 mGy/MBq and the Individual absorbed dose ([3]; patient 6 (pre-treatment N, C, L, A), parotid gland) was 0.387 mGy/MBq. For the same compound, the Individual absorbed dose ([3]; patient 6 (pre-treatment N, C, L, A), submandibular gland) was 0.259 mGy/MBq, the “A (% injected A0)” value [3, 10] was 0.41 ± 0.26 % injected A0 and the Absorbed dose [3, 10] was 0.285 ± 0.180 mGy/MBq. For the same compound, the “TIAC” value [3, 10] was 0.06 ± 0.05 h and the “λ, monoexponential curve-fitting parameter” value [3, 10] was 0.030 ± 0.007 h⁻¹.
